Literature values, collected in Sander's compilation of Henry's law constants (doi:10.1039/p29940001777).

Assay: Henry solubility constant Hcp at 298.15 K (mol/(m3 Pa))
Conditions: reference: Abraham et al. (1994a); cited value

SMILES	Henry solubility constant Hcp
Cc1cccc(C)c1N [2,6-dimethylbenzenamine]	2.7
OCCc1ccccc1 [2-phenylethanol]	39
Cc1cccc(O)c1C [1-hydroxy-2,3-dimethylbenzene]	13
O=Cc1cccnc1 [3-formylpyridine]	65
COC(=O)c1ccccc1 [methyl benzoate]	0.31
Oc1ccccc1F [2-hydroxyfluorobenzene]	3.1
OCCCc1ccccc1 [3-phenyl-1-propanol]	48
Nc1cccc([N+](=O)[O-])c1 [3-nitrobenzenamine]	1200
CN1CCCCC1 [N-methylpiperidine]	0.24
CCOP(=O)(OCC)OCC [triethylphosphate]	140
Nc1cccc(Cl)c1 [1-amino-3-chlorobenzene]	7.5
CC(=O)c1ccc(C)cc1 [4'-methylacetophenone]	1.1
Nc1ccc2ccccc2c1 [2-naphthylamine]	120
COc1cccc(O)c1 [1-hydroxy-3-methoxybenzene]	170
Cc1ccc(O)c(C)c1 [1-hydroxy-2,4-dimethylbenzene]	10
CNc1ccccc1 [(methylamino)-benzene]	1.1
CCCc1ccc(O)cc1 [1-hydroxy-4-propylbenzene]	8.6
Cc1ccc(C)c(O)c1 [1-hydroxy-2,5-dimethylbenzene]	8.8
N#Cc1cccnc1 [3-cyanopyridine]	36
N#Cc1ccccc1 [benzenenitrile]	0.5
CCOC(=O)c1ccccc1 [ethyl benzoate]	0.19
OCc1ccccc1 [(hydroxymethyl)-benzene]	29

SMILES	Henry solubility constant Hcp
O=Cc1ccncc1 [4-formylpyridine]	56
CCOCCO [2-ethoxyethanol]	33
CCc1ccc(O)cc1 [1-hydroxy-4-ethylbenzene]	13
CC(=O)c1cccnc1 [3-acetylpyridine]	460
N#Cc1ccncc1 [4-cyanopyridine]	11
Nc1ccc(Cl)cc1 [1-amino-4-chlorobenzene]	8.6
Oc1ccccc1Cl [2-hydroxychlorobenzene]	0.88
O=[N+]([O-])c1ccccc1O [2-nitrophenol]	0.92
Oc1ccccc1I [2-iodophenol]	14
Cc1ccccc1N [2-methylbenzenamine]	4.6
COc1cccc(N)c1 [3-methoxy-benzenamine]	90
CCc1cccc(O)c1 [1-hydroxy-3-ethylbenzene]	16
Cc1cc(O)ccc1Cl [4-chloro-3-methylphenol]	39
Nc1cccc2ccccc12 [1-naphthylamine]	88
Cc1cc(C)cc(O)c1 [1-hydroxy-3,5-dimethylbenzene]	16
Nc1ccccc1[N+](=O)[O-] [2-nitrobenzenamine]	100
Nc1ccccc1Cl [1-amino-2-chlorobenzene]	1.6
COc1ccccc1O [1-hydroxy-2-methoxybenzene]	5
Nc1ccc([N+](=O)[O-])cc1 [4-nitrobenzenamine]	14000
CC(=O)c1ccncc1 [4-acetylpyridine]	160
NC(=O)c1ccccc1 [benzamide]	47000
c1ccc2ncccc2c1 [benzo[b]pyridine]	6.4
